In ChEMBL document CHEMBL1148315, “Photoaffinity labeling of the anionic sites in Caco-2 cells mediating saturable transport of hydrophilic cations ranitidine and famotidine” (2004):

How the values were obtained:
Format in all cases: functional, Homo sapiens
Caco-2 [1] = assay: Inhibition of irreversible increase in transepithelial electrical resistance across Caco-2 cell monolayer by the compound in the presence of 5 mM of famotidine
Caco-2 [2] = assay: Inhibition of Ranitidine transport across Caco-2 cell monolayer by the compound (200 uM) After photoactivation at 254 nM
Caco-2 [3] = assay: Inhibition of apical to basolateral transport of Ranitidine (100 uM) across Caco-2 cell monolayer in the presence of 300 uM of compound
Caco-2 [4] = assay: Ability to increase the transepithelial electrical resistance across Caco-2 cell monolayer at 200 uM concentration

**Q.** For `N=C(N)Nc1nc(CSCCC(=N)NS(N)(=O)=O)cs1.[N-]=[N+]=Nc1ccc(C(=O)NCCSCc2csc(NC(=N)N)n2)cc1`, which Inhibition (Caco-2 [1]) is on record?
**A.** 35%

**Q.** Which Inhibition (Caco-2 [2]) does the source give for `CNC(=C[N+](=O)[O-])NCCSCc1ccc(CN(C)C)o1.[N-]=[N+]=Nc1ccc(C(=O)NCCSCc2csc(NC(=N)N)n2)cc1` here?
**A.** 35%

**Q.** What about the Inhibition (Caco-2 [3]) of the same compound?
**A.** 40%

**Q.** How did the Increase (Caco-2 [4]) turn out when `[N-]=[N+]=Nc1ccc(C(=O)NCCSCc2csc(NC(=N)N)n2)cc1` was run?
**A.** 120%
